Data on 2 compounds can be found in patent US20170216244A1, “METHODS FOR TREATING DIABETIC NEPHROPATHY” (YALE UNIVERSITY, priority 2014, published 2017).

Several values for one entry are separate records, joined by “and”; a condition that tells them apart may be missing. Identical values can stand only once. Entries after “also recorded” stand apart in the source; their conditions may differ.

One data set relates to MICAL1. The experiment in a line: Podocyte MICAL1 knockdown by siRNA, immunoblot. It is filed as cell-based, mouse. Particulars: 200 pmol siRNA, 72 hours, cultured podocytes, densitometry. How it is done: Equal amount of protein from ≧4 kidney lysates/experimental condition were pooled and resolved by SDS-PAGE, immunoblotting was performed using standard technique with the following primary antibodies: WT1, podocin, nephrin, laminin, Sema3a (sc-28867; Santa Cruz), β3-integrin (sc-14009; Santa Cruz), β1-integrin (AB1952; EMD-Millipore), neuropilin-1 (Kolodkin et al., Cell 1997;90:753-762; Takahashi et al., Cell 1999;99(1):59-69), MMP-2 (MAB13434; EMD-Millipore), MMP-9 (AB19016; EMD-Millipore), plexinA1 (sc-25639; Santa Cruz), VEGFR-2 (2479; Cell Signaling), MICAL1 (14818-1-AP; Proteintech); actin (A2066; Sigma) or tubulin (Sigma) were used as loading controls. Signals were detected with appropriate HRP-conjugated secondary antibodies, visualized by chemiluminescence and quantified using ImageJ.
(§1) Podocyte MICAL-1 knockdown was induced using a mouse MICAL-1 siRNA oligonucleotide ([…], SEQ ID NO: 1) (Zhou et al., Mol Cell Biol 2011;31(17):3603-3615) (Dharmacon). Briefly, podocytes were transfected with 200 pmol MICAL-1 siRNA or scrambled siRNA using Oligofectamine (Invitrogen) and incubated for 72 hours. MICAL1 knockdown was confirmed by immunoblot. Podocytes with or without MICAL1 knockdown were exposed to mouse recombinant Sema3a (100 ng/ml) for 6 hours. Podocytes were fixed, permeabilized, stained with rhodamine-phalloidin, and their morphology was analyzed as described above.

The subject of another data set is podocytes. The experiment in a line: Podocyte MICAL1 knockdown morphology assay. Format: cell-based. Particulars: mouse recombinant Sema3a 100 ng/ml, 6 hours. How it is done:
as §1

The subject of the next data set is Sema3a^+ podocytes. Put plainly: Podocyte morphology assay (rhodamine-phalloidin staining, cell area morphometry). Format: cell-based. On the procedure:
Sema3a^+ podocyte cell line was described previously (Reidy et al., Am J Pathol 2013;183(4):1156-1168). Sema3a^+ podocytes were exposed to RPMI 1640 medium+1%FBS, medium+0.1 μM xanthofulvin, medium+100 ng/ml rat recombinant Sema3a (Reidy et al., Development 2009;136(23):3979-3989) or medium+xanthofulvin+Sema3a for 16 h, fixed and stained with rhodamine-phalloidin. Images were acquired (Zeiss Axiovert); podocyte area (μm^2) was measured using Zeiss AxioVision software as described (Reidy et al., Am J Pathol 2013;183(4):1156-1168), n=71±4 cells/experimental condition from 3 independent experiments were measured.

Data set [1] deals with Sema3a^+ gain-of-function diabetic mice. Put plainly: Sema3a inhibition study: xanthofulvin subcutaneous infusion in Sema3a^+ gain-of-function diabetic mice. Format: in vivo, mouse. How it is done:
Podocin-rtTA:tet-O-Sema3a mice, herein called Sema3a^+, generated previously (Reidy et al., Development 2009;136(23):3979-3989) were maintained in FVB genetic background for >10 generations. Diabetes was induced (low dose protocol, AMDCC.org) in 6-8 weeks old male Sema3a^+ mice by 5 daily i.p. streptozotocin (STZ) (50 mg/kg) . Diabetes (random blood glucose >300 mg/dl) was confirmed using glucose oxidase biosensor blood glucose meter (One-Touch-Ultra-2; LifeScan) one week after the last STZ injection. Diabetic Sema3a^+ (DM-Sema3a^+) (n=15) and non-diabetic Sema3a^+ (non-DM-Sema3a^+) (n=18) mice were fed doxycycline-containing diet (0.625mg/kg chow, Harlan-Teklad) or standard chow for 12-16 weeks. After 12-16 weeks of diabetes, 24 h urine was collected in metabolic cages, blood and kidneys were collected under anesthesia. For Sema3a inhibition studies, DM-Sema3a^+ mice were fed doxycycline-containing chow for 8 weeks, then Alzet osmotic pumps (Model 1004) containing xanthofulvin (0.5 mg/ml in PBS) (Ieda et al., Nat Med 2007;13(5):604-612) (n=4) or saline (n=2) were implanted subcutaneously, all mice were kept on doxycycline-containing chow for the following 4 weeks.
Urinary albumin was measured using mouse albumin ELISA (Bethyl Laboratories) and SDS-PAGE/Coomassie Blue staining as described (Reidy et al., Am J Pathol 2013;183(4):1156-1168). Plasma and 24h urine creatinine were measured by HPLC. Transmission electron microscopy (TEM) was performed using standard techniques. Glomerular area was measured using ImageJ-NIH (rsb.info.nih.gov/ij/) in 34±2.1 glomeruli/kidney from 4 mice/experimental condition. A renal pathologist (G.M.) examined PAS stained kidney specimens in blinded fashion and assigned a semiquantitative pathology score based on % area (0=none;1=1-25%;2=26-50%;3=51-75%;4=76-100%) with the following features: glomerular nodules, mesangiolysis, mesangial sclerosis and interstitial fibrosis. The percentage glomeruli/section containing mesangiolysis or nodules was calculated (Veron et al., J Am Soc Nephrol. 2014;25(8):1814-1824).

A further data set has as its target T1, Sema3a (Homo sapiens, UniProt Q14563).
T1 sequence (Q14563 21-771): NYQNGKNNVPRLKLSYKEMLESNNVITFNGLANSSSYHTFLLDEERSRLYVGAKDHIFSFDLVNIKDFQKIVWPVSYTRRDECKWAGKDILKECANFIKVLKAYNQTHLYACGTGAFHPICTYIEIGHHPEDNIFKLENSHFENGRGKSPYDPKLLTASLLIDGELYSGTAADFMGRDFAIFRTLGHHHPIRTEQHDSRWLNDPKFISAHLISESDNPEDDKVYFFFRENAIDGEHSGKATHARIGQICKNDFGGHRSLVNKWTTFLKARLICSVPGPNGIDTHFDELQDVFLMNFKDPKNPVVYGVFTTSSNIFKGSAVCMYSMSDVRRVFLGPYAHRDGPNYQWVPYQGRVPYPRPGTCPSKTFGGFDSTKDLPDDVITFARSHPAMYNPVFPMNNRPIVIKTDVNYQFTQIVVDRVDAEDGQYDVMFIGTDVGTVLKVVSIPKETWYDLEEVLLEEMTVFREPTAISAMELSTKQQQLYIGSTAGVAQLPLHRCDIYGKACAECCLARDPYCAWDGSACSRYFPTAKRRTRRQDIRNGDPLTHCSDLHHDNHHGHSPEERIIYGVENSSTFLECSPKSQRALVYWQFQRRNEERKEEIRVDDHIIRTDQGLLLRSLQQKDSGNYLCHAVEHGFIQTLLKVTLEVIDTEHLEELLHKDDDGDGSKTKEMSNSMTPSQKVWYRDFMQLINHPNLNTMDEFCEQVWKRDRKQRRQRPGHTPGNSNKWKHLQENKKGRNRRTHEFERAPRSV
Particulars: fungal and synthetic xanthofulvin, in vitro; cited from earlier work.

For data set [2] the following is noted: purified fungal xanthofulvin, in vivo; cited from earlier work.
Where [3] appears, read: constant subcutaneous infusion ~1.8 μg/d for 30 days.

“siRNA: mouse MICAL-1 siRNA oligonucleotide (CAGGUGCCAUGACUAAGUAUU, SEQ ID NO: 1) (listed as RNA, chemistry not given here; listed as Mus musculus)”: the “decrease of MICAL1 expression (knockdown)” value with MICAL1 is 73±2.6% and ~75%. In addition, the “Sema3a-induced podocyte contraction and F-actin collapse after MICAL1 knockdown” value in the data set with podocytes was “not susceptible to Sema3a-induced contraction; also recorded: prevents Sema3a-induced podocyte contraction and F-actin collapse”.

Consider `CC(=O)c1c(C)c(/C(O)=C2\COc3cc(O)c(O)c(C(=O)O)c3C2=O)cc2c(=O)c3c(C(=O)O)c(O)c(O)cc3oc12` [xanthofulvin], for which the “Sema3a-induced podocyte F-actin collapse, shape change and contraction” value in the data set on Sema3a^+ podocytes (0.1 μM xanthofulvin, 100 ng/ml rat recombinant Sema3a, synthetic xanthofulvin) is “prevented Sema3a-induced podocyte F-actin collapse, shape change and contraction; also recorded: abrogates Sema3a-induced podocyte contraction in vitro; also recorded: abrogates Sema3a-induced podocyte F-actin collapse in vitro; also recorded: abrogates Sema3a-induced podocyte F-actin collapse, shape change and contraction”. Further, the “deleterious effects in cultured podocytes” value with Sema3a^+ podocytes (cultured podocytes) is listed as “no deleterious effects in cultured podocytes”. Further, in data set [1] (setting [3]), the “GBM thickness (TEM morphometry)” value is recorded as “significantly decreased GBM thickness; also recorded: quite normal GBM”; the body weight entry is on record as “stable body weight”; the “creatinine clearance (renal insufficiency)” value is “abrogated renal insufficiency; also recorded: normalized”; the “diabetic glomerulosclerosis phenotype by histology and TEM” value was “markedly attenuates the diabetic glomerulosclerosis phenotype; also recorded: abrogate the diabetic nodular glomerulosclerosis; also recorded: abrogated; also recorded: mild mesangial hypercellularity and extracellular matrix expansion”. Besides, in data set [1] (setting [3]), the “foot process effacement / FP width (TEM morphometry)” value is on record as “significantly decreased; also recorded: focal FPE”, the “plasma albumin (hypoalbuminemia)” value is “corrects hypoalbuminemia; also recorded: normalized” and the side effect entry was “no apparent side effect”. In addition, in data set [1] (constant subcutaneous infusion ~1.8 μg/d for 30 days (weeks 8-12 after diabetes onset)), the albuminuria entry was “significantly decreases albuminuria; also recorded: decreased albuminuria; also recorded: improved albuminuria”. The “Sema3a-induced growth cone collapse” value on Sema3a is recorded as “prevent Sema3a-induced growth cone collapse in vitro”. Further, the “functional recovery of injured spinal cord” value in data set [2] was “promotes functional recovery of injured spinal cord”.
